According to PMC7772550 (Heliyon, 2020):

Tested on: NO production
Test: nitric oxide
Type: cell-based
Conditions: read-out: NO production inhibition IC50

IC50: 32.2 µM
SMILES: COc1ccc2c(c1)c(CC(=O)O)c(C)n2C(=O)c1ccc(Cl)cc1 [Indomethacin]
